# Laboratory results: patent US20140336259A1, “PHENOLIC COMPOUNDS WITH ANTIOXIDANT AND ANTI-CANCER PROPERTIES, ANALOGS AND SYNTHESIS THEREOF” (priority 2011, published 2014)
# “And” between values parts separate entries of the source, which are not always exact repeats. Equal values may be shown once. Read-outs that look alike come from different tables or passages of the source.
# Legend:
# [1] = test system: MDA-MB-231 (ER negative) human breast cancer cells; test: MTS antiproliferative/cytotoxicity assay on MDA-MB-231 cells; format: cell-based
# [2] = test system: MCF-7 (estrogen receptor (ER) positive) human breast cancer cells; test: MTS antiproliferative/cytotoxicity assay on MCF-7 cells; conditions: for MCF-7 IC50: 72 h treatment, mean ± S.D., vs DMSO 0.5% control; for antiproliferative / cytotoxic activity in words: against MCF-7 cells and MDA-MB 231 cells, 72 h of treatment
# colon cancer cell lines = conditions: Gonzales-Sarrias et al. 2011; cited from earlier work
# [3] = test system: MCF-7 (estrogen receptor (ER) positive) human breast cancer cells
# [4] = Homo sapiens, MDA-MB-231, 24 h, 24 h, read-out: IC50 MDA-MB-231 24 h
# [5] = Homo sapiens, MDA-MB-231, 48 h, read-out: IC50 MDA-MB-231 48 h, 48 h
# [6] = Homo sapiens, MDA-MB-231, 72 h, 72 h, read-out: IC50 MDA-MB-231 72 h
# [7] = Homo sapiens, MDA-MB-231, 72 h, 72 h treatment, mean ± S.D., vs DMSO 0.5% control, read-out: MDA-MB-231 IC50
# [8] = Homo sapiens, MDA-MB-231, 96 h, 96 h, read-out: IC50 MDA-MB-231 96 h
# [9] = read-out: IC50 MCF-7 24 h, 24 h
# [10] = read-out: IC50 MCF-7 48 h, 48 h
# [11] = read-out: IC50 MCF-7 72 h, 72 h
# [12] = read-out: IC50 MCF-7 96 h, 96 h
# [13] = 24 h, read-out: IC50 MDA-MB-231 24 h
# [14] = 72 h, read-out: IC50 MDA-MB-231 72 h
# [15] = 72 h treatment, mean ± S.D., vs DMSO 0.5% control
# [16] = 96 h, read-out: IC50 MDA-MB-231 96 h
# [17] = read-out: IC50 MDA-MB-231 48 h, 48 h
Compound,"IC50 [1, 4]","IC50 [1, 5]","IC50 [1, 6]","IC50 [1, 7]","IC50 [1, 8]",IC50 MCF-7 24 h ([2]; 24 h),IC50 MCF-7 48 h ([2]; 48 h),MCF-7 IC50 [2],IC50 MCF-7 96 h ([2]; 96 h),antiproliferative / cytotoxic activity in words [2],"IC50 [2, 9]","IC50 [2, 10]","IC50 [2, 11]","IC50 [2, 12]",further results
COc1ccc(C(O)(c2ccc(OC)c(C=O)c2)c2ccc(OC)c(C=O)c2)cc1C=O [TRD8],43.5 µg/mL and 100 µM,27.8 µg/mL and 63.9 µM,17.4 µg/mL and 40 µM,17.5 to 24 µg/mL,11.2 µg/mL and 25.8 µM,42.0 µg/mL,21.8 µg/mL,10.6 ± 2.1 µg/mL,7.0 µg/mL,highest antiproliferative activities,96.7 µM,50.1 µM,24.3 µM,16.2 µM,
CCOC(=O)C(c1ccc(O)c(OC)c1)C(c1ccc(O)c(OC)c1)c1ccc(O)c(OC)c1 (centres unmarked) [QB57],,,85.1 µg/mL and 182 µM,85.1 ± 1.8 µg/mL,73.8 µg/mL and 158 µM,,,,,,,,,,
"COc1cc(C(CO)C(c2ccc(O)c(OC)c2)c2ccc(O)c(OC)c2)ccc1O (centres unmarked) [QUEBECOL SYNTHETIC, 4,4′,4″-(3-Hydroxypropane-1,1,2-triyl)tris(2-methoxyphenol)]",,,,,,67.2 µg/mL,54.2 µg/mL,44.4 ± 1.8 µg/mL,38.0 µg/mL,,158 µM,127 µM,104 µM,89.1 µM,"IC50 MDA-MB-231 24 h ([1]; 24 h): 72.5 µg/mL; IC50 [1, 13]: 170 µM; IC50 MDA-MB-231 48 h ([1]; 48 h): 55.6 µg/mL; IC50 MDA-MB-231 72 h ([1]; 72 h): 48.5 µg/mL; IC50 [1, 14]: 114 µM; MDA-MB-231 IC50 [1, 15]: 48.5 ± 1.9 µg/mL; IC50 MDA-MB-231 96 h ([1]; 96 h): 43.8 µg/mL; IC50 [1, 16]: 103 µM; IC50 [1, 17]: 130 µM"
COc1ccc(C(O)(c2ccc(OC)c(O)c2)c2ccc(OC)c(O)c2)cc1O [TRD6],,,75.2 µg/mL and 189 µM,62.9 to 77.4 µg/mL,71.5 µg/mL and 179 µM,78.7 µg/mL,66.1 µg/mL,60.4 ± 1.9 µg/mL,43.6 µg/mL,moderate cytotoxic activity,198 µM,166 µM,152 µM,109 µM,
COc1ccc(C(O)(c2ccc(OC)c(F)c2)c2ccc(OC)c(F)c2)cc1F [TRD7],,,,,,42.3 µg/mL,32.7 µg/mL,,23.2 µg/mL,highest antiproliferative activities,105 µM,80.9 µM,61.3 µM,57.3 µM,"IC50 MDA-MB-231 24 h ([1]; 24 h): 36.4 µg/mL; IC50 [1, 13]: 90 µM; IC50 MDA-MB-231 48 h ([1]; 48 h): 30.4 µg/mL; IC50 MDA-MB-231 72 h ([1]; 72 h): 24.0 µg/mL; IC50 [1, 14]: 59.4 µM; MDA-MB-231 IC50 [1, 15]: 24.0 ± 2.1 µg/mL; IC50 MDA-MB-231 96 h ([1]; 96 h): 15.6 µg/mL; IC50 [1, 16]: 38.7 µM; IC50 [1, 17]: 75.3 µM; IC50 MCF-7 72 h ([2]; 72 h): 24.8 µg/mL"
COC(=O)c1cc(C(O)(c2ccc(O)c(C(=O)OC)c2)c2ccc(O)c(C(=O)OC)c2)ccc1O [TRD1],,,93.9 µg/mL and 195 µM,93.9 ± 2.4 µg/mL,89.4 µg/mL and 185 µM,94.2 µg/mL,89.1 µg/mL,84.1 ± 3.4 µg/mL,78.3 µg/mL,,195 µM,185 µM,174 µM,162 µM,
COc1ccc(C(O)(c2ccc(OC)c(Br)c2)c2ccc(OC)c(Br)c2)cc1Br [TRD9],115 µg/mL and 196 µM,108 µg/mL and 183 µM,97.8 µg/mL and 167 µM,97.8 ± 3.5 µg/mL,89.9 µg/mL and 153 µM,110.7 µg/mL,102.5 µg/mL,91.4 ± 3.4 µg/mL,82.3 µg/mL,,189 µM,175 µM,156 µM,140 µM,
OCc1cc(CCCCCCCCCCCCc2ccc(O)c(CO)c2)ccc1O [TRD5],,,81.6 µg/mL and 197 µM,62.9 to 77.4 µg/mL,78.2 µg/mL and 189 µM,,80.9 µg/mL,75.9 ± 1.9 µg/mL,66.5 µg/mL,moderate cytotoxic activity,,195 µM,183 µM,160 µM,
"COc1cc(C(CO)C(c2ccc(O)c(OC)c2)c2ccc(O)c(OC)c2)ccc1O (centres unmarked) [QUEBECOL, 4,4′,4″-(3-Hydroxypropane-1,1,2-triyl)tris(2-methoxyphenol)]",70.9 µg/mL and 166 µM,57 µg/mL and 134 µM,50.7 µg/mL and 119 µM,50.7 ± 2.4 µg/mL,43.3 µg/mL and 102 µM,65.9 µg/mL,53.5 µg/mL,46.3 ± 2.1 µg/mL,37.4 µg/mL,,,,,,"IC50 ([1]; Homo sapiens, MDA-MB-231, 24 h, 24 h, combination study Table 5B, T starting 50 μM, Q starting 200 μM, read-out: IC50 MDA-MB-231 24 h): 166 µM; IC50 ([1]; Homo sapiens, MDA-MB-231, 48 h, read-out: IC50 MDA-MB-231 48 h, 48 h, combination study Table 5B): 134 µM; IC50 ([1]; Homo sapiens, MDA-MB-231, 72 h, 72 h, combination study Table 5B, read-out: IC50 MDA-MB-231 72 h): 119 µM; IC50 ([1]; Homo sapiens, MDA-MB-231, 96 h, 96 h, combination study Table 5B, read-out: IC50 MDA-MB-231 96 h): 102 µM; cytotoxic effect on colon cancer cell lines (colon cancer cell lines): cytotoxic effect; MCF-7 IC50 ([2]; listed as QUEBECOL Natural): 46.3 ± 2.1 µg/mL; IC50 ([2]; read-out: IC50 MCF-7 24 h, 24 h, combination study Table 5A, T starting 50 μM, Q starting 200 μM): 155 µM; IC50 ([2]; read-out: IC50 MCF-7 24 h, 24 h, listed as QUEBECOL Natural): 155 µM; IC50 ([2]; read-out: IC50 MCF-7 48 h, 48 h, combination study Table 5A): 126 µM; IC50 ([2]; read-out: IC50 MCF-7 48 h, 48 h, listed as QUEBECOL Natural): 126 µM; IC50 ([2]; read-out: IC50 MCF-7 72 h, 72 h, combination study Table 5A): 109 µM; IC50 ([2]; read-out: IC50 MCF-7 72 h, 72 h, listed as QUEBECOL Natural): 109 µM; IC50 ([2]; read-out: IC50 MCF-7 96 h, 96 h, combination study Table 5A): 87.9 µM; IC50 ([2]; read-out: IC50 MCF-7 96 h, 96 h, listed as QUEBECOL Natural): 87.9 µM"
COc1ccc(C(O)(c2ccc(OC)c(Cl)c2)c2ccc(OC)c(Cl)c2)cc1Cl [TRD10],,85.8 µg/mL and 189 µM,77.4 µg/mL and 170 µM,62.9 to 77.4 µg/mL,68.7 µg/mL and 151 µM,87.0 µg/mL,81.9 µg/mL,73.5 ± 1.8 µg/mL,54.4 µg/mL,,192 µM,180 µM,162 µM,120 µM,antiproliferative / cytotoxic activity in words [3]: moderate cytotoxic activity
CCOC(=O)C(c1ccc(OCc2ccccc2)c(OC)c1)C(c1ccc(OCc2ccccc2)c(OC)c1)c1ccc(OCc2ccccc2)c(OC)c1 (centres unmarked) [QB56],,143 µg/mL and 195 µM,136 µg/mL and 185 µM,136 ± 3.7 µg/mL,129 µg/mL and 176 µM,,,138.1 ± 3.1 µg/mL,124.9 µg/mL,,,,188 µM,170 µM,
COc1cc(C(O)c2ccc(OCc3ccccc3)c(OC)c2)ccc1OCc1ccccc1 [QB46],78.3 µg/mL and 172 µM,72.4 µg/mL and 159 µM,62.9 µg/mL and 138 µM,62.9 to 77.4 µg/mL,53 µg/mL and 116 µM,73.2 µg/mL,59.5 µg/mL,44.8 ± 1.7 µg/mL,36.8 µg/mL,moderate cytotoxic activity,160 µM,130 µM,98.1 µM,80.7 µM,
COc1cc(C(O)c2ccccc2OC)ccc1OCc1ccccc1 (centres unmarked) [QB12],,,67.2 µg/mL and 192 µM,62.9 to 77.4 µg/mL,58 µg/mL and 165 µM,,,65.0 ± 1.4 µg/mL,59.6 µg/mL,moderate cytotoxic activity,,,185 µM,170 µM,
